Measured values published in publication PMC8493129, “Design and Synthesis of New Quinoxaline Derivatives as Potential Histone Deacetylase Inhibitors Targeting Hepatocellular Carcinoma: In Silico, In Vitro, and SAR Studies” (Frontiers in Chemistry, 2021).

Assays:
[1] = tested on: HepG-2 liver cancer cell line; assay: Anti-proliferative activity (MTT / SRB assay), HepG-2; assay type: cell-based, human; conditions: for IC50: Homo sapiens, HepG2, mean of three separate experiments
Protocol: (§1) The new quinoxaline derivatives of the five series: 6, 7, 8, 9, and 10 were evaluated for their potential anti-proliferative activity against two liver cancer cell lines (HepG-2 and HuH-7) obtained from the American Type Culture Collection.

[2] = tested on: HuH-7 liver cancer cell line; assay: Anti-proliferative activity (MTT / SRB assay), HuH-7; assay type: cell-based, human; conditions: for IC50: Homo sapiens, mean of three separate experiments
Protocol: as §1

[3] = biological target: HDAC4 (Homo sapiens, UniProt P56524); assay: Histone deacetylase inhibition, homogeneous fluorescence release assay
[4] = biological target: HDAC1 (Homo sapiens, UniProt Q13547); assay: as above
[5] = biological target: T1, HDAC6 (Homo sapiens, UniProt Q9UBN7); assay: as above
T1 sequence (Q9UBN7 1-1215): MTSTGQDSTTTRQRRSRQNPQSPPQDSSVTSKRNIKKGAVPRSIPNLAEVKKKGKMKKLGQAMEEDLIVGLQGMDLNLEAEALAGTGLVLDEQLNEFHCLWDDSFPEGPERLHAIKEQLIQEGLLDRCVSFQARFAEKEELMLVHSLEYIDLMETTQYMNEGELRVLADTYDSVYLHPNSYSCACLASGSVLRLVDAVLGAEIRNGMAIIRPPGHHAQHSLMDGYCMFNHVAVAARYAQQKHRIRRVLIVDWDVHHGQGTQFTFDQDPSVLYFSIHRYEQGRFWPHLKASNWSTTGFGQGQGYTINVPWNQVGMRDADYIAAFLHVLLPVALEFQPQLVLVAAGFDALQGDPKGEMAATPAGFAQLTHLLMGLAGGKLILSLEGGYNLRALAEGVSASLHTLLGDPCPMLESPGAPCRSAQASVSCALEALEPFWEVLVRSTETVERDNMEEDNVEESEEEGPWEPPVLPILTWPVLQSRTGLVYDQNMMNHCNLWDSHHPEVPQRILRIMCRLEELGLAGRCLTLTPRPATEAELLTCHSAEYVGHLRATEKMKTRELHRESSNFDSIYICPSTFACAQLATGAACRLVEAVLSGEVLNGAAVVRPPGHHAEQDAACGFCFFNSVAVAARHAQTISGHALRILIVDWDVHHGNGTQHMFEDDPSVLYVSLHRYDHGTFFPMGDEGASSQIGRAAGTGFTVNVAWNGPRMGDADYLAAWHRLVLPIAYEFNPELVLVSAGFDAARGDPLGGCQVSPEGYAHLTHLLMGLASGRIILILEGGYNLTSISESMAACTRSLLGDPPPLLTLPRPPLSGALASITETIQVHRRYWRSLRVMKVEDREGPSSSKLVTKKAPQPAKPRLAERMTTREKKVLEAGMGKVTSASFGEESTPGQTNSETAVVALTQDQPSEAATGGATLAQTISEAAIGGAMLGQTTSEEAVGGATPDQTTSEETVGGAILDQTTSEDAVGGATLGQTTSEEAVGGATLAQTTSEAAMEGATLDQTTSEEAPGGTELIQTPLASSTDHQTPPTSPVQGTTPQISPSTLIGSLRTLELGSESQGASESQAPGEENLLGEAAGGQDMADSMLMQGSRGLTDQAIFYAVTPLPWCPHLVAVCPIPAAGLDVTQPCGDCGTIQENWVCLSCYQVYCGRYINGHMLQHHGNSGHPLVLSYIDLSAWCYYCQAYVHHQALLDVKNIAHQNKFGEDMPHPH

[6] = tested on: Bax; assay: Apoptotic marker level (Bax) in HepG-2 cells; assay type: cell-based, human; conditions: control 24.37 pg/ml
Protocol: (§2) The method was performed in detail as previously explained ([Eliaa et al., 2020]).

[7] = tested on: Bcl-2; assay: Anti-apoptotic marker level (Bcl-2) in HepG-2 cells; assay type: cell-based, human; conditions: control 5.048 pg/ml
Protocol: as §2

[8] = tested on: HepG-2 and HuH-7 liver cancer cell lines; assay: Anti-proliferative activity, statements covering both cell lines; assay type: cell-based, human; conditions: class by IC50 on HepG-2 and HuH-7
Protocol: as §1

Chain of HDAC4 (P56524 whole entry): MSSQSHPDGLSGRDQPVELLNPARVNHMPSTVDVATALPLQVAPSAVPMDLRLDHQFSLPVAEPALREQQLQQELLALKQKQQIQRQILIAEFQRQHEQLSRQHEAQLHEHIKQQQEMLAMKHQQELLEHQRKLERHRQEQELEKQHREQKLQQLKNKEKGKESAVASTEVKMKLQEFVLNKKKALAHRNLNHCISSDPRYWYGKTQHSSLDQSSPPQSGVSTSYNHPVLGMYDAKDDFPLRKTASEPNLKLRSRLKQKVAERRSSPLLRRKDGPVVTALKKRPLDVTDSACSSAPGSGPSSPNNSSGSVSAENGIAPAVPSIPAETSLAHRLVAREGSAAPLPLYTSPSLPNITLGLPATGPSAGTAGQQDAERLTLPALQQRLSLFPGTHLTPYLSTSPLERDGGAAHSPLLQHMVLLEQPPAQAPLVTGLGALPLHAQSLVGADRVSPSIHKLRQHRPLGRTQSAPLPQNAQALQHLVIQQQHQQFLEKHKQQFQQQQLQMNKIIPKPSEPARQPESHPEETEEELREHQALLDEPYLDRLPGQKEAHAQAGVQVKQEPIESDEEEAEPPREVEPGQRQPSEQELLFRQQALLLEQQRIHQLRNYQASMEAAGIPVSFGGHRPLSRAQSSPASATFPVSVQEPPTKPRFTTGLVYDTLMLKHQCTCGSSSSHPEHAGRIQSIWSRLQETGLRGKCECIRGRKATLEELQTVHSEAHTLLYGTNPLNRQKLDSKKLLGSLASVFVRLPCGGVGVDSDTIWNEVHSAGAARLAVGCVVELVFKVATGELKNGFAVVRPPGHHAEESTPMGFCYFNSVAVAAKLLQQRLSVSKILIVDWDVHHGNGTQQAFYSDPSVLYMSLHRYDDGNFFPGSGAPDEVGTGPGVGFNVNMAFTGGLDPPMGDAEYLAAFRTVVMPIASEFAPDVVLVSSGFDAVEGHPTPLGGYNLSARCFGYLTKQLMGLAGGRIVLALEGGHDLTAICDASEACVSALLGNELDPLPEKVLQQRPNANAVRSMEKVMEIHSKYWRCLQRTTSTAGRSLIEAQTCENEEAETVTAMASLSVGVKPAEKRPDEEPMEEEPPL
Chain of HDAC1 (Q13547 whole entry): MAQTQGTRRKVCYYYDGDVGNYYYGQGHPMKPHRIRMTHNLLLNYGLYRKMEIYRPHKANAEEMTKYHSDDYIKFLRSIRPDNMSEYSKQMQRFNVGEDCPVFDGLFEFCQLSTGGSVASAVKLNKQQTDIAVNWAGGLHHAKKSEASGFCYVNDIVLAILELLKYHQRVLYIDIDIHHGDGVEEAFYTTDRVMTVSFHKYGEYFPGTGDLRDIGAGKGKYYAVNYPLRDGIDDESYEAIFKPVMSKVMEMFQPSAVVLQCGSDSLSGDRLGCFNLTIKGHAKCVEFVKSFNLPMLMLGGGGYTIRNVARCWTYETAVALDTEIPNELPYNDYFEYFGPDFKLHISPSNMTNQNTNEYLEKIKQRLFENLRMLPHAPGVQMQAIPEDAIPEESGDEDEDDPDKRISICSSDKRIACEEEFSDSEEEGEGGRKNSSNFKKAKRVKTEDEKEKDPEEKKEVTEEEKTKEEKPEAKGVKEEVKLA

Row | Compound | IC50 ([1]; HepG-2) [µM] | IC50 [2] [µM] | IC50 [3] [µM] | IC50 [4] [µM] | IC50 [5] [µM] | Bax [6] [pg/mL] | Bcl-2 [7] [pg/mL] | further results
1 | Clc1nc2ccccc2nc1NN=Cc1ccccc1 [Compound 6 a, 2-(2-Benzylidenehydrazinyl)-3-chloroquinoxaline] | 14.3 | 18.2 | – | – | – | – | – | –
2 | Clc1ccccc1C=NNc1nc2ccccc2nc1Cl [Compound 6 b, 2-Chloro-3-(2-(2-chlorobenzylidene)hydrazinyl)quinoxaline] | 15.8 | 18.7 | – | – | – | – | – | –
3 | Clc1ccc(C=NNc2nc3ccccc3nc2Cl)c(Cl)c1 [Compound 6 d, 2-Chloro-3-(2-(2,4-dichlorobenzylidene)hydrazinyl)quinoxaline] | 6.16 | 9.47 | 3.25 | 3.52 | 4.28 | 179.2 | 2.711 | –
4 | Clc1cccc(Cl)c1C=NNc1nc2ccccc2nc1Cl [Compound 6 e, 2-Chloro-3-(2-(2,6-dichlorobenzylidene)hydrazinyl)quinoxaline] | 13.5 | 17.5 | – | – | – | – | – | –
5 | COc1ccccc1C=NNc1nc2ccccc2nc1Cl [Compound 6 f, 2-Chloro-3-(2-(2-methoxybenzylidene)hydrazinyl)quinoxaline] | 6.63 | 8.52 | 3.44 | 3.29 | 5.32 | 185.7 | 2.705 | –
6 | COc1ccc(C=NNc2nc3ccccc3nc2Cl)cc1OC [Compound 6 g, 2-Chloro-3-(2-(3,4-dimethoxybenzylidene)hydrazinyl)quinoxaline] | 2.16 | 3.05 | 1.64 | 2.17 | 3.81 | 247.5 | 1.687 | –
7 | COc1cc(C=NNc2nc3ccccc3nc2Cl)cc(OC)c1OC [Compound 6 h, 2-Chloro-3-(2-(3,4,5-trimethoxybenzylidene)hydrazinyl)quinoxaline] | 11.8 | 14.7 | – | – | – | – | – | –
8 | O=[N+]([O-])c1cccc(C=NNc2nc3ccccc3nc2Cl)c1 [Compound 6 i, 2-Chloro-3-(2-(3-nitrobenzylidene)hydrazinyl)quinoxaline] | 63.9 | 65.7 | – | – | – | – | – | –
9 | O=[N+]([O-])c1ccc(C=NNc2nc3ccccc3nc2Cl)cc1 [Compound 6 j, 2-Chloro-3-(2-(4-nitrobenzylidene)hydrazinyl)quinoxaline] | 15.9 | 25.8 | – | – | – | – | – | –
10 | Oc1ccccc1C=NNc1nc2ccccc2nc1Cl [Compound 6 k, 2-((2-(3-Chloroquinoxalin-2-yl)hydrazono)methyl)phenol] | 7.71 | 6.52 | 3.81 | 4.18 | 6.29 | 164.3 | 2.914 | –
11 | CN(C)c1ccc(C=NNc2nc3ccccc3nc2Cl)cc1 [Compound 6 l, 4-((2-(3-Chloroquinoxalin-2-yl)hydrazono)methyl)-N,N-dimethylaniline] | 5.39 | 9.27 | 2.79 | 3.29 | 4.09 | 219.7 | 2.519 | –
12 | CC(=NNc1nc2ccccc2nc1Cl)c1ccccc1 [Compound 7 a, 2-Chloro-3-(2-(1-phenylethylidene)hydrazinyl)quinoxaline] | 28.5 | 37.1 | – | – | – | – | – | –
13 | CC(=NNc1nc2ccccc2nc1Cl)c1ccccc1O [Compound 7 b, 2-(1-(2-(3-Chloroquinoxalin-2-yl)hydrazono)ethyl)phenol] | 4.03 | 6.19 | 2.51 | 2.67 | 5.24 | 217.9 | 2.371 | cytotoxic (anti-proliferative) activity class [8]: very strong (1–10 (very strong))
14 | Oc1ccc2ccccc2c1C=NNc1nc2ccccc2nc1Cl [Compound 8, 1-((2-(3-Chloroquinoxalin-2-yl)hydrazono)methyl)naphthalen-2-ol] | 3.88 | 6.14 | 2.09 | 1.72 | 4.37 | 233.6 | 1.839 | cytotoxic (anti-proliferative) activity class [8]: very strong (1–10 (very strong)); fold increase in activity versus corresponding member 11, HepG-2 ([1]; ratio of IC50 values, HepG-2): 4.76 fold; fold more active than compound 9 ([1]; ratio of IC50 values, stated for the two cell lines, figure fits HepG-2): 2.98 fold; fold increase in activity versus corresponding member 11, HuH-7 ([2]; ratio of IC50 values): 3.30 fold
15 | O=C1Nc2ccccc2/C1=N\Nc1nc2ccccc2nc1Cl [Compound 9, 2-(2-(3-Chloroquinoxalin-2-yl)hydrazono)indolein-3-one] | 11.6 | 16.4 | – | – | – | – | – | cytotoxic (anti-proliferative) activity class [8]: strong (11–20 (strong))
16 | COc1nc2ccccc2nc1NN=Cc1ccc(Cl)cc1 [Compound 10 a, 2-(2-(4-Chlorobenzylidene)hydrazinyl)-3-methoxyquinoxaline] | 53.9 | 57.8 | – | – | – | – | – | –
17 | COc1nc2ccccc2nc1NN=Cc1ccc(Cl)cc1Cl [Compound 10 b, 2-(2-(2,4-Dichlorobenzylidene)hydrazinyl)-3-methoxyquinoxaline] | 32.1 | 35.2 | – | – | – | – | – | –
18 | COc1nc2ccccc2nc1NN=Cc1c(Cl)cccc1Cl [Compound 10 c, 2-(2-(2,6-Dichlorobenzylidene)hydrazinyl)-3-methoxyquinoxaline] | 60.5 | 65.3 | – | – | – | – | – | –
19 | COc1ccccc1C=NNc1nc2ccccc2nc1OC [Compound 10 d, 2-Methoxy-3-(2-(2-methoxybenzylidene)hydrazinyl)quinoxaline] | 28.6 | 27.3 | – | – | – | – | – | –
20 | COc1ccc(C=NNc2nc3ccccc3nc2OC)cc1OC [Compound 10 e, 2-(2-(3,4-Dimethoxybenzylidene)hydrazinyl)-3-methoxyquinoxaline] | 55.7 | 50.6 | – | – | – | – | – | –
21 | COc1cc(C=NNc2nc3ccccc3nc2OC)cc(OC)c1OC [Compound 10 f, 2-Methoxy-3-(2-(3,4,5-trimethoxybenzylidene)hydrazinyl)quinoxaline] | 56.9 | 48.8 | – | – | – | – | – | –
22 | COc1nc2ccccc2nc1NN=Cc1ccc([N+](=O)[O-])cc1 [Compound 10 g, 2-Methoxy-3-(2-(4-nitrobenzylidene)hydrazinyl)quinoxaline] | 13 | 19.1 | – | – | – | – | – | –
23 | COc1nc2ccccc2nc1NN=Cc1ccccc1O [Compound 10 h, 2-((2-(3-Methoxyquinoxalin-2-yl)hydrazono)methyl)phenol] | 5.56 | 6.72 | 3.15 | 3.54 | 7.21 | 205.4 | 2.673 | –
24 | COc1nc2ccccc2nc1NN=Cc1ccc(N(C)C)cc1 [Compound 10 i, 4-((2-(3-Methoxyquinoxalin-2-yl)hydrazono)methyl)-N,N-dimethylaniline] | 23 | 22.7 | – | – | – | – | – | –
25 | COc1nc2ccccc2nc1NN=Cc1c(O)ccc2ccccc12 [Compound 11, 1-((2-(3-Methoxyquinoxalin-2-yl)hydrazono)methyl)naphthalen-2-ol] | 18.5 | 20.3 | – | – | – | – | – | cytotoxic (anti-proliferative) activity class [8]: strong (11–20 (strong))
26 | COc1cccc2c1C(=O)c1c(O)c3c(c(O)c1C2=O)C[C@@](O)(C(=O)CO)C[C@@H]3O[C@H]1C[C@H](N)[C@H](O)[C@H](C)O1 [Doxorubicin, reference compound] | 8.25 | 9.2 ± 0.65 | – | – | – | – | – | –
